The target of the first experiment is T1, hAR (Homo sapiens, UniProt P10275).
T1 construct: expressed in transfected cells; host or cells: COS-1 cells transiently transfected with pRShAR, pRS-β-Gal and pGEM
T1 sequence (P10275 1-920): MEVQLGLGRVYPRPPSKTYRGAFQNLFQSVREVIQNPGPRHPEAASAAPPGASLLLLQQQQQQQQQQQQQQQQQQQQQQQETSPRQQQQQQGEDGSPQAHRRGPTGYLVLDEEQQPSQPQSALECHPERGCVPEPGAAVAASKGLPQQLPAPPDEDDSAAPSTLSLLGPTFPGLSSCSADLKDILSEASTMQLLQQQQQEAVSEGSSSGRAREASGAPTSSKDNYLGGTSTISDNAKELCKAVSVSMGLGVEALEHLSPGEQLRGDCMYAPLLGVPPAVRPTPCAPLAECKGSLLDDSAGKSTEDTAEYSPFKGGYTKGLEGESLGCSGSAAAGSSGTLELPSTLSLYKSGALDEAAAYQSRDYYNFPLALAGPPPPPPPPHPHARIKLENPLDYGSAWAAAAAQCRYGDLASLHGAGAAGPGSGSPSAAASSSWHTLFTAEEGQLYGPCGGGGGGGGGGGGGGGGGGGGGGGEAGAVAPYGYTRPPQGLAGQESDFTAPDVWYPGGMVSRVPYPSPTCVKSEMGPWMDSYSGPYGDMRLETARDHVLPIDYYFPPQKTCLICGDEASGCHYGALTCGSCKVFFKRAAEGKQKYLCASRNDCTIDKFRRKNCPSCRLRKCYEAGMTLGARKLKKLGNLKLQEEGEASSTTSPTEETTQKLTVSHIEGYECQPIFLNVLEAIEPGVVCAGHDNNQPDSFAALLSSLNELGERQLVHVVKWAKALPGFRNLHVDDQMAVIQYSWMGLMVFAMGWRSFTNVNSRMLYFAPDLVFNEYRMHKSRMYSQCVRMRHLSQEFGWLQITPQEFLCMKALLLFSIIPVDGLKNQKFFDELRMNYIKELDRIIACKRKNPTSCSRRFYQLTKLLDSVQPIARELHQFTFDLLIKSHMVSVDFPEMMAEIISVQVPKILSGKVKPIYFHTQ
As to the kind of experiment: IR Binding Assay: displacement of 3H-DHT in COS-1 cells transfected with pRShAR.
Conditions: not given
How it is done:
COS-1 cells in 96-well microtiter plates containing DMEM-10% FBS were transfected using standard techniques with plasmids pRShAR (2 ng/well), pRS-β-Gal (50 ng/well) and pGEM (48 ng/well). Six hours after transfection, media was removed, the cells were washed with PBS and fresh media was added. Twenty-four hours later, the media was changed to serum free DMEM and the cells were incubated for twenty-four hours.
Three replicates were used for each sample.
After three hours at 37° C., aliquots of media from each well of both test plates and control plates were removed to estimate the amount of free ^3H-DHT. The remaining media was removed, the cells were washed three times with PBS, and cells were lysed with a Triton X-100-based buffer. The lysates were assayed for amount of bound ^3H-DHT and β-Gal activity using a scintillation counter and spectrophotometer, respectively.
Determination of Kd for ^3H-DHT. Total binding was defined as binding of ^3H-DHT in the absence of 100 molar excess of unlabeled DHT in the control plate. […] binding was defined as binding of ^3H-DHT in the presence of 100 molar excess of unlabeled DHT in the control plate. Specific binding was defined as the difference between the total binding and the nonspecific binding, normalized by the β-Gal rate. Specific binding was used in Scatchard analysis to determine the Kd for ^3H-DHT.
Test Compounds. To determine binding affinity (Ki) for test compounds, the data from each concentration of test compound was calculated as a percentage of the signal for the sample with no test compound. […] The Ki values were determined by the Cheng-Prusoff equation, where: […]
In the case of `COc1c(OC(=O)C(C)(C)C)ccc2oc(=O)c3c(ccc4[nH]c(=O)cc(C)c43)c12` [Compound 102, 2,2-Dimethylpropionic acid 10-methoxy-4-methyl-2,5-dioxo-2,5-dihydro-1H-6-oxa-1-aza-chrysen-9-yl ester], the Ki – broadly, a measure of affinity in units of concentration, obtained from inhibition or displacement – is 0.01 to 0.05 µM. On the same count and under the same terms, the value for `COc1cccc2c1-c1ccc3[nH]c(=O)cc(C)c3c1C(C)O2` (racemic) [Compound 107, (±)-10-Methoxy-4,5-dimethyl-1H,5H-6-oxa-1-aza-chrysen-2-one] was over 0.05 µM. In the case of `COc1cccc2c1-c1ccc3[nH]c(=O)cc(C(F)(F)F)c3c1OC2` [Compound 127, 10-Methoxy-4-trifluoromethyl-1,6-dihydro-5-oxa-1-azachrysen-2-one], the Ki was in the range of 0.01 to 0.05 µM. With `O=c1cc(C(F)(F)F)c2c3c(ccc2[nH]1)-c1c(O)cccc1OC3` [Compound 115, 10-Hydroxy-4-trifluoromethyl-1H,5H-6-oxa-1-aza-chrysen-2-one], the Ki is under 0.01 µM. In the case of `COc1cccc2c1-c1ccc3[nH]c(=O)cc(C(F)(F)F)c3c1C(O)O2` (racemic) [Compound 114, (±)-5-Hydroxy-10-methoxy-4-trifluoromethyl-1H,5H-6-oxa-1-aza-chrysen-2-one], the Ki was over 0.05 µM. On to `COc1cccc2c1-c1ccc3[nH]c(=O)cc(C(F)(F)F)c3c1CO2` [Compound 113], for which the inhibitory constant (Ki) fell in the range of 0.01 to 0.05 µM.

`Cc1cc(=O)[nH]c2ccc3c4c(CO)cccc4oc(=O)c3c12` [Compound 124, 10-Hydroxymethyl-4-methyl-1H-6-oxa-1-aza-chrysene-2,5-dione]: the Ki lay in the range of 0.01 to 0.05 µM. In turn, `CC(C)(C)C(=O)Oc1cccc2c1-c1ccc3[nH]c(=O)cc(C(F)(F)F)c3c1CO2` [Compound 116, 2,2-Dimethyl-propionic acid 2-oxo-4-trifluoromethyl-2,5-dihydro-1H-6-oxa-1-aza-chrysen-10-yl ester] yielded a Ki of under 0.01 µM. Molecule `COc1cccc2c(=O)oc3c(ccc4[nH]c(=O)cc(C(F)(F)F)c43)c12` [Compound 126, 10-Methoxy-4-trifluoromethyl-1H-5-oxa-1-azachrysene-2,6-dione] yielded an inhibitory constant (Ki) of 0.01 to 0.05 µM.

Staying with this experiment, now noted: 1 nM 3H-DHT, transfected COS-1 cells, 3 hours at 37° C., Cheng-Prusoff; read-out: Binding to hAR (Ki value ranges).
In the case of `COC(=O)c1cccc2oc(=O)c3c(ccc4[nH]c(=O)cc(C)c43)c12` [Compound 111, 4-Methyl-2,5-dioxo-2,5-dihydro-1H-6-oxa-1-aza-chrysene-10-carboxylic acid methyl ester], the Ki was over 0.05 µM.

In the case of `COc1c(O)ccc2c1-c1ccc3[nH]c(=O)cc(C)c3c1C(OC)O2` (racemic) [Compound 118, (±)-9-Hydroxy-5,10-dimethoxy-4-methyl-1H,5H-6-oxa-1-aza-chrysen-2-one], the Ki is over 0.05 µM. Still for that read-out and setting: for `Cc1c([N+](=O)[O-])ccc2c1c(=O)oc1cccc(O)c12` [Compound 129, 1-Hydroxy-7-methyl-8-nitrobenzo[c]coumarin] the value was under 0.01 µM; for `COc1c(OC(C)C)ccc2oc(=O)c3c(ccc4[nH]c(=O)cc(C)c43)c12` [Compound 120, 9-Isopropoxy-10-methoxy-4-methyl-1H-6-oxa-1-aza-chrysene-2,5-dione], 0.01 to 0.05 µM; for `COc1cccc2c1-c1ccc3[nH]c(=O)cc(C)c3c1C(C)(OC)O2` (racemic) [Compound 108, (±)-5,10-Dimethoxy-4,5-dimethyl-1H,5H-6-oxa-1-azachrysen-2-one], over 0.05 µM. The same measure, in the same setting: for `COc1cccc2c1-c1ccc3[nH]c(=O)cc(C)c3c1C(O)O2` (racemic) [Compound 105, (±)-5-Hydroxy-10-methoxy-4-methyl-1H,5H-6-oxa-1-aza-chrysen-2-one] the value was over 0.05 µM. Same read-out and setting: for `COc1c(O)ccc2oc(=O)c3c(ccc4[nH]c(=O)cc(C)c43)c12` [Compound 117, 9-Hydroxy-10-methoxy-4-methyl-1H-6-oxa-1-aza-chrysene-2,5-dione] the value was under 0.01 µM.

For the molecule `CCOc1ccc2oc(=O)c3c(ccc4[nH]c(=O)cc(C)c43)c2c1OC` [Compound 121, 9-Ethoxy-10-methoxy-4-methyl-1H-6-oxa-1-aza-chrysene-2,5-dione], the Ki was over 0.05 µM. Consider `COc1ccc2oc(=O)c3c(ccc4[nH]c(=O)cc(C)c43)c2c1` [Compound 103, 9-Methoxy-4-methyl-1H-6-oxa-1-aza-chrysene-2,5-dione], for which the Ki was over 0.05 µM. With `COc1cccc2oc(=O)c3c(C)c([N+](=O)[O-])ccc3c12` [Compound 130, 1-Methoxy-7-methyl-8-nitrobenzo[c]coumarin], the Ki is over 0.05 µM.

Regarding `COc1c(O)ccc2c1-c1ccc3[nH]c(=O)cc(C)c3c1CO2` [Compound 119, 9-Hydroxy-10-methoxy-4-methyl-1H,5H-6-oxa-1-aza-chrysen-2-one], the Ki is under 0.01 µM. `CCOc1ccc2oc(=O)c3c(ccc4c3c(C)cc(=O)n4CC)c2c1OC` [Compound 122, 9-Ethoxy-1-ethyl-10-methoxy-4-methyl-1H-6-oxa-1-aza-chrysene-2,5-dione]: the Ki was over 0.05 µM.

Regarding `Cc1cc(=O)[nH]c2ccc3c4c(OC(=O)C(C)(C)C)cccc4oc(=O)c3c12` [Compound 104, 2,2-Dimethylpropionic acid 4-methyl-2,5-dioxo-2,5-dihydro-1H-6-oxa-1-aza-chrysen-10-yl ester], the Ki was under 0.01 µM. The same measure, in the same setting: for `COc1cccc2c1-c1ccc3[nH]c(=O)cc(C)c3c1C(=O)OC2` [Compound 123, 4-Methoxy-10-methyl-7,13-dihydro-12-oxa-7-aza-benzo[3,4]cyclohepta[1,2-α]-naphthalene-8,11-dione] the value was over 0.05 µM; for `COc1cccc2c1-c1ccc3[nH]c(=O)cc(C)c3c1CO2` [Compound 109, 10-Methoxy-4-methyl-1H,5H-6-oxa-1-azachrysen-2-one], over 0.05 µM.

Source of the values: patent US20090203725A1, “Androgen Receptor Modulator Compounds and Methods” (priority 2005, published 2009).
